# Test: gradient 5% acetonitrile 3 min, to 50% in 2 min, to 85% in 15 min, held 3 min, 100 µL/min
# Details: column: Zorbax Extend-C18 2.1 x 50 mm; eluents: water / acetonitrile, 0.1% formic acid
# Method in brief: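 Using water and acetonitrile that each contained 0.1% formic acid, mixtures of ~100 pure standards were separated at 100 μL/min on a Zorbax Extend-C18 column (2.1 × 50 mm, 1.8 μm). The HPLC fed a quadrupole time-of-flight mass spectrometer working in positive and negative ionization mode, with dead and dwell volumes of 40 μL and 900 μL. Data were acquired over 3 months. Retention time was read from computationally picked adduct peaks after manual inspection of each.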
row,Compound,RP-LC retention time
1,CCc1ccccc1NC(=O)N1CCC2(CC1)NC(=O)c1cc(F)ccc1N2C,791 s
2,Cc1ccc(NC(=O)N2CCCC2c2nc(-c3ccccc3C)no2)cc1C (stereo not given),593 s
3,COc1cccc(C2Cn3nnc(-c4nc(-c5ccc(OC(C)C)cc5)no4)c3CO2)c1 (stereo not given),1250 s
4,COc1cccc2cc(C(=O)N(CCc3cccs3)Cc3cccnc3)oc12,671 s
5,Cc1nc(-c2ccc(-c3noc(CNS(=O)(=O)c4ccccc4)n3)cc2)cs1,960 s
6,Cc1cc(NC(=O)c2c(O)c3cccnc3n(-c3cccc(F)c3)c2=O)ccc1F,1310 s
7,Cc1cccc(OCC(=O)Nc2cccn3nc(C)nc23)c1,834 s
8,CCn1nc2ccc(S(=O)(=O)N3CCCCC3)cn2c1=O,744 s
9,Cn1cccc1C(=O)N1CC[C@H](n2c(=O)n(C)c3cccnc32)C1,695 s
10,C=CCN(c1ccccc1)c1nc(C(=O)OCC)nc2ccccc12,1000 s
11,COc1ccc(CN(Cc2ccccc2)Cc2cc(=O)n3cc(Cl)ccc3n2)cc1,721 s
12,O=C(c1cc(-c2cccnc2)n[nH]1)N1CCN(C(=O)c2cc3ccccc3[nH]2)CC1,633 s
13,Cc1ccc(S(=O)(=O)N2CCCC(C(=O)Nc3nnc(Cc4cccs4)o3)C2)cc1 (stereo not given),810 s
14,O=C([C@@H]1C[C@H](F)CN1S(=O)(=O)c1ccccc1F)N1CCc2ccccc2C1,887 s
15,O=S(=O)(Cc1ccccc1)N1CCC(OCCOc2cccnc2)CC1,665 s
16,CCc1ccc(S(=O)(=O)N2CC(c3nc(-c4ccccc4)nn3C)C2)cc1,1030 s
17,Cc1cccc(C)c1NC(=O)N1CCC(c2cc(N)on2)CC1,660 s
18,COc1ccc(NS(=O)(=O)c2c(C)c(-c3nnc(C4CCC4)o3)n(C)c2C)c(C)c1,929 s
19,COc1ccccc1-c1nc2nccc(-c3ccc(Br)s3)n2n1,1020 s
20,CCn1nc(C)c(CCNC(=O)c2ccc3c(c2)NC(=O)C2CCCCN32)c1C (stereo not given),636 s
21,COc1cc2ccccc2cc1C(=O)Nc1nccs1,888 s
22,COc1cc(NC(=O)C2CCCN(c3nc(C)nc4oc(C)c(C)c34)C2)cc(OC)c1 (stereo not given),915 s

row,Compound,RP-LC retention time
1,Cc1ccc(CNC(=O)C2Cn3cccc3C(=O)N2C)o1 (stereo not given),663 s
2,Cn1c(=O)c2c(ncn2CC(=O)N2CCCn3nc(-c4cccc(F)c4)cc3C2)n(C)c1=O,677 s
3,COCCCNC(=O)CN1C(=O)C2CCCCN2c2ccc(C(=O)N(C)C)cc21 (stereo not given),655 s
4,CCOC(=O)C1CCCN(Cc2nc3nc(C)cc(N4CCCC4)n3n2)C1 (stereo not given),579 s
5,O=C(c1csc(S(=O)(=O)N2CCC(C(=O)N3CCc4ccccc43)CC2)c1)N1CCOCC1,779 s
6,COc1ccc(CNC(=O)C2CCN(c3cnc4nccnc4c3)CC2)cc1,664 s
7,Cc1cc(C)cc(Nc2nc(C)cc3nn(CC(=O)NCc4ccccc4)c(=O)n23)c1,1080 s
8,COC(=O)c1cc2c(=O)n(-c3ccccc3Cl)ccc2nc1C,830 s
9,Cc1ccc(C)c(S(=O)(=O)N2CC(c3noc(C)n3)C3(CCOCC3)C2)c1 (stereo not given),929 s
10,CCCNC(=O)N1CCCCCCN(C)C(=O)CC1,662 s
11,CCN(CC)CCCNC(=O)C1c2cc(OC)c(OC)cc2C(=O)N2CCc3ccccc3C12 (stereo not given),608 s
12,Cc1nc(-c2ccc3c(c2)n(CC(=O)N2CCC4(CC2)OCCO4)c(=O)n3C(C)C)no1,720 s
13,COc1ccccc1CCC(=O)N1CCn2c(C)nnc2C1,607 s
14,c1ccc(NN(Cc2ccncc2)c2ccccc2)cc1,774 s
15,COc1ccc(Br)c(C(=O)Nc2ccc3c(c2)N(C(=O)C2CCCC2)CC3)c1,950 s
16,CN1CCc2cccc3c2C1Cc1ccc(O)c(O)c1-3 (stereo not given),606 s
17,CCCN1CCN(C(=O)c2sc(-c3cn(C(C)C)c4ncccc34)nc2C)CC1,619 s
18,COc1ccc(C2(C(=O)N3CCCC(c4nc(-c5ccc(NC(C)=O)cc5)no4)C3)CC2)cc1 (stereo not given),835 s
19,CC(C)NC(=O)C1CC(=O)N(c2ccc3c(c2)CCN3C(=O)C2CC2)C1 (stereo not given),657 s
20,Nc1c(C(=O)NCc2ccc3c(c2)OCO3)nsc1C(=O)N1CCN(c2ccccn2)CC1,663 s
21,O=C(Cn1ccc2c(SCc3ccc(F)cc3)nccc21)N1CCN(c2ccccn2)CC1,595 s
22,COc1ccc(-c2nc3cnccn3c2Nc2ccc(C(C)C)cc2)cc1,1040 s

row,Compound,RP-LC retention time
1,O=C(CCC(=O)N1CC2CCCN2c2ccccc21)N1CCN(Cc2ccccc2)CC1 (stereo not given),678 s
2,O=C1CC(c2cc(Br)ccc2F)c2scc(S(=O)(=O)c3ccccc3)c2N1 (stereo not given),1010 s
3,O=C(Nc1ccc(F)c(Cl)c1)C1CCc2sc(C(=O)N3CCOCC3)cc2C1 (stereo not given),807 s
4,O=C(NCc1ccccc1)c1cc2sccc2n1Cc1ccc(Cl)cc1,1170 s
5,COc1ccc(NC(=O)N2C[C@@H](F)C[C@H]2C(=O)N2CCc3ccccc3C2)cc1F,797 s
6,CN(C)C(CNC(=O)c1cc(=O)c2cc(Cl)ccc2o1)c1ccccc1 (stereo not given),650 s
7,Cc1ccc(Sc2nccnc2N2CCCC(C(=O)NCCCc3ccccc3)C2)cc1 (stereo not given),1210 s
8,O=C(CCc1nc(CSc2nc3ccccc3o2)no1)Nc1nc(-c2ccccc2)cs1,1030 s
9,COc1ccc2c(c1)C1(CCN(C(=O)Nc3cccc(F)c3)C1)C(=O)N2 (stereo not given),683 s
10,COc1ccc(-c2ncc3c(n2)CCN(S(=O)(=O)c2ccc(Cl)cc2)C3)cc1,1100 s
11,COCCCNC(=O)C1CCN(c2cnn(Cc3ccccc3)c(=O)c2)CC1,651 s
12,CCOC(=O)Nc1ccc(C(=O)/C=C/c2ccccc2)cc1,1000 s
13,COC(=O)[C@@H]1Cc2c([nH]c3ccccc23)C(CCc2ccccc2)N1C(C)=O (stereo not given in full),983 s
14,CC(NC(=O)c1ccco1)c1nc2ccccc2n1CC(=O)N(c1ccccc1)C(C)C (stereo not given),725 s
15,CCS(=O)(=O)c1nc2ccc(NS(=O)(=O)c3ccc4c(c3)oc(=O)n4C)cc2s1,805 s
16,CCN1CCCn2cc(S(=O)(=O)N(C)c3ccc(C)cc3)cc2C1=O,756 s
17,COc1ccc(CNC(=O)Nc2cc3c(cc2Oc2ccccc2)n(C)c(=O)n3C)cc1,840 s
18,COC(=O)C1CCN(c2ccnc3c2c(=O)n(C)c(=O)n3C)CC1,660 s
19,O=C(NCCC1CCN(C(=O)Nc2ccccc2)CC1)c1ccoc1,704 s
20,Cc1noc(C)c1S(=O)(=O)N1CCC(Cc2nncn2-c2ccccc2)CC1,780 s
21,O=C1[C@@H]2[C@H]3CC[C@H](C3)[C@@H]2C(=O)N1C[C@@H]1CCCC[C@H]1CN1CCN(c2nsc3ccccc23)CC1,884 s

# Source: the METLIN SMRT retention time set (Domingo-Almenara et al. 2019)
